What is called solubility is how much of the substance goes into solution per volume. A word on the IC50: it is the midpoint of a concentration-inhibition curve.

In data set [1] the test system is U87MG glioblastoma xenografts. In words: Xenograft tumor model U87MG. It is filed as in vivo, mice. How it is done: Human glioblastoma cells U87MG, human gastric cancer cells MKN45, or human pancreatic KP4 cells are cultured and implanted subcutaneously in the rear flank of female CD-1 nu/nu strain mice which have been acclimated for one week in the animal facility after receipt from the vendor. Mice are randomized into groups of 10 mice per group. Testing compound is prepared in an appropriate vehicle and is administered by oral gavage when tumors are established (7-21 days after implant, or when the mean tumor volume reaches ˜100 mm^3). Tumor response is determined by tumor volume measurement performed twice a week during the course of treatment. Fluctuations in body weight are also monitored as a general measurement of toxicity. The compound of example 1 is orally administered twice a day for 28 days.
For statistical analysis, the individual subject tumor volumes are transformed to log volume and are analyzed with a two-way repeated measures analysis of variance by time and treatment using the MIXED procedures in SAS software (version 8.2). The correlation model for the repeated measures is spatial power. Treated groups are compared to the control group at the final time point. The MIXED procedure is also used separately for each treatment group to calculate adjusted means and standard errors at each time point. Both analyses account for the autocorrelation within each subject.

A further data set in a line: Dynamic solubility. It counts as physicochemical. As to conditions: for solubility at 18 h: thermodynamic from solid. How it is done: The media included simulated gastric fluid (SGF) which comprise of 0.01N HCl, 0.05% sodium lauryl sulfate, and 0.2% NaCl; fasted state simulated intestinal fluid (SIF-fasted) which composed of 29 mM NaH2PO4, 3 mM Na taurocholate, 0.75 mM lecithin, 103 mM NaCl, and NaOH to pH 6.5; fed state simulated intestinal fluid (SIF-fed) which comprise of 144 mM acetic acid, 15 mM Na taurocholate, 3.75 mM lecithin, 204 mM NaCl, and NaOH to pH 5.0; and pH 4.5, 6, 7.5 buffers which are 28-56 mM phosphate buffers. The compound concentrations are determined using Agilent 1200 HPLC (LC5) with a UV detector. Mobile phase uses A (85%) which is water containing 0.1% TFA and B (15%) which is ACN at a flow rate of 1 mL/min and run time of 10 min. Column of Zorbax, Bonus-RP (3.5 μm, 4.6×75 mm; SN: USTM002428) is used in the studies.

The target of another data set is cMet enzyme (Homo sapiens, UniProt P08581). Kind of data set: cMet Homogeneous Time Resolved Fluorescence (HTRF) in vitro assay. As to conditions: relative IC50; read-out: c-Met IC50 (HTRF). It counts as biochemical. An excerpt: This assay is based on HTRF technology and it is used to detect the phosphorylation of biotin labeled tyrosine peptide by cMet enzyme. After the reaction is completed, XL665 labeled streptavidin is used to recognize the biotin unit and a Europium (Eu3+) labeled anti-phospho-tyrosine antibody is used to recognize the phosphorylated tyrosine. The detection process relies on the transfer of energy between the excited Eu3+ and the XL665 labeled streptavidin. The aim of this protocol is to calculate the ability of test compounds to inhibit the phosphorylation of the product of this reaction and calculate their relative IC50 values.
Chain of cMet enzyme (P08581 25-1390): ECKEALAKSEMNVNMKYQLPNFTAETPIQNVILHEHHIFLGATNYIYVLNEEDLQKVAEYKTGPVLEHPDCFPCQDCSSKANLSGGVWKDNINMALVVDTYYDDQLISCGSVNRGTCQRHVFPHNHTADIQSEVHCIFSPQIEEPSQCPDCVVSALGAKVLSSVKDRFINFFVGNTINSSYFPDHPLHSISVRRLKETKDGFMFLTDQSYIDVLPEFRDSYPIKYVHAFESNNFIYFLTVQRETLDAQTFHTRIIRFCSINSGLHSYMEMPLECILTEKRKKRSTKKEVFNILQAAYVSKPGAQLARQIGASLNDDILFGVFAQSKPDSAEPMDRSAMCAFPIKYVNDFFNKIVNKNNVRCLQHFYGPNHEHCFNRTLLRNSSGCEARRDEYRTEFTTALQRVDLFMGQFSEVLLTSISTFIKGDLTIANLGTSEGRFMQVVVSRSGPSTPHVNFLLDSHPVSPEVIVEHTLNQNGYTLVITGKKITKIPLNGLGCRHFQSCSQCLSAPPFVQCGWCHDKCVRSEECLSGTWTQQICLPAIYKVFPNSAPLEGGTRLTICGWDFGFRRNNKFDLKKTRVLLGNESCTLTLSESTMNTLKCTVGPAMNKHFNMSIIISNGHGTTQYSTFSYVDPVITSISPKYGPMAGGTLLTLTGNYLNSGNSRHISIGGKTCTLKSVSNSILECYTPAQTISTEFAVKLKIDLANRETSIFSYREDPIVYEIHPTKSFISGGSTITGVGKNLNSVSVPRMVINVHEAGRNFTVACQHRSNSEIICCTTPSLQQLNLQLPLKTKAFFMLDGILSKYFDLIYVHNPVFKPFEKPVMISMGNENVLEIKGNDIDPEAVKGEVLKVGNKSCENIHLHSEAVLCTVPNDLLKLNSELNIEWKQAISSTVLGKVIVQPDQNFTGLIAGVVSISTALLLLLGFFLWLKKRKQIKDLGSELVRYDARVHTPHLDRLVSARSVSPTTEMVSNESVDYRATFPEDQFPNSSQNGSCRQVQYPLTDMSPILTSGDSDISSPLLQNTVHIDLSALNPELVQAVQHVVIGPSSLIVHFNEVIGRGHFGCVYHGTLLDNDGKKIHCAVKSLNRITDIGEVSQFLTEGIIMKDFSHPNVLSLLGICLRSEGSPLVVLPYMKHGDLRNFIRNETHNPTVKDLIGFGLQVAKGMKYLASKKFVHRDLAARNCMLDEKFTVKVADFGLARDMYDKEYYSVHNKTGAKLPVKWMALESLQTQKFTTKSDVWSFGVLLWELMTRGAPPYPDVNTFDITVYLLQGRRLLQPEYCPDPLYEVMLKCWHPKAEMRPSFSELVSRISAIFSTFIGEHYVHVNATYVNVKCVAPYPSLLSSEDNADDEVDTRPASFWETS
A reference compound, if desired, may be prepared as a 1 mM stock solution in 100% DMSO and test compounds are prepared as 10 mM stock solutions in 100% DMSO. 1 mM reference compound and 10 mM test compounds are pre-diluted to 8 μM and 80 μM 10% DMSO solutions in a 96-well dilution plate. Compounds are serially diluted (1:3) using Tecan Freedom EVO 200 and 10-point dilution curves are generated for each of the compounds tested. 10 μL of serially diluted compounds are transferred to a 96-well assay plate using Temo (Tecan). […] The assay plate is incubated at RT for 60 min before reading the fluorescence signals at 620 nm emission and 665 nm […] in a Victor3 instrument (PerkinElmer Corporation). […]

Values after ≈ are worked out from the molar mass of the structure shown. Like-named read-outs stand apart in the source and are kept apart here.

In the case of `Cn1cc(-c2ccc3nnc(Sc4ccc5nn(C)cc5c4)n3n2)cn1` [Example 1, 6-(1-Methyl-1H-pyrazol-4-yl)-3-(2-methyl-2H-indazol-5-ylthio)-[1,2,4]triazolo[4,3-b]pyridazine], the “Mean Tumor Volume ± Standard Error” value in data set [1] (2 mg/kg oral twice a day for 28 days) is given as 271 ± 61 mm^3; in data set [1] (4 mg/kg oral twice a day for 28 days), 137 ± 29 mm^3; in data set [1] (8 mg/kg oral twice a day for 28 days), 108 ± 16 mm^3; in data set [1] (16 mg/kg oral twice a day for 28 days) it was 116 ± 19 mm^3; in data set [1] (32 mg/kg oral twice a day for 28 days), 46 ± 4 mm^3. The solubility at 18 h in the data set “Dynamic solubility” (0.01N HCl, simulated gastric fluid, read-out: Dynamic solubility, 0.01N HCl) is 11 µg/mL (≈ 30.4 µM); in “Dynamic solubility” (0.1N HCl, simulated gastric fluid, read-out: Dynamic solubility, 0.1N HCl), 33 µg/mL (≈ 91.1 µM); in the data set “Dynamic solubility” (aqueous buffer, pH ≧ 4 phosphate buffer, read-out: Dynamic solubility, pH ≧ 4 buffer), about 10 µg/mL (≈ 27.6 µM); in the data set “Dynamic solubility” (fassif, fasted state simulated intestinal fluid pH 6.5, 18 h ambient, read-out: Dynamic solubility, SIF Fasted), 13 µg/mL (≈ 35.9 µM); in the data set “Dynamic solubility” (fessif, fed state simulated intestinal fluid pH 5.0, 18 h ambient, read-out: Dynamic solubility, SIF Fed) it was 70 µg/mL (≈ 193 µM); in “Dynamic solubility” (simulated gastric fluid, 18 h ambient, read-out: Dynamic solubility, SGF), 52 µg/mL (≈ 143 µM). Further, the solubility at 18 h in the data set “Dynamic solubility” (water, read-out: Dynamic solubility, Water) is 9 µg/mL (≈ 24.8 µM). Besides, the “fold more soluble than the reference compound, SIF fasted” value in “Dynamic solubility” (SIF fasted state) is “approximately 13 fold”. The “fold more soluble than the reference compound, SIF fed” value in “Dynamic solubility” (SIF fed state) was about 14 fold. For the same compound, the half-maximal inhibitory concentration (IC50) on cMet enzyme amounted to 10 nM.

Values taken from patent US8268836B2, “Compound useful as a c-Met inhibitor” (Eli Lilly and Company, priority 2010, dated 2012).
